US20260015325A1, “ALKOXY HETEROARYL- CARBOXAMIDE OR THIOAMIDE COMPOUNDS” (SYNGENTA CROP PROTECTION AG, priority 2022, published 2026)

Legend:
Assay type in all cases: in vivo
[1] = test system: Myzus persicae (Green Peach Aphid); assay: Myzus persicae (Green Peach Aphid): feeding/contact activity, eggplant leaf discs; conditions: foliar, 144 h, application rate of 200 ppm, mixed ages on sprayed eggplant leaf discs, 6 days after infestation, read-out: growth inhibition
Description: (§1) Example B12: Myzus persicae (Green Peach Aphid) Feeding/Contact Activity Eggplant leaf discs were placed onto agar in a 24-well microtiter plate and sprayed with aqueous test solutions prepared from 10′000 ppm DMSO stock solutions. After drying, the leaf discs were infested with an aphid population of mixed ages. The samples were assessed for mortality 6 days after infestation.

[2] = test system: Myzus persicae (Green Peach Aphid); assay: Myzus persicae (Green Peach Aphid): intrinsic activity, sucrose solution; conditions: 120 h, test rate of 12 ppm, intrinsic, mixed with sucrose solution under Parafilm, 5 days after infestation, read-out: mortality
Procedure, shortened: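 Compounds from 10′000 ppm DMSO stocks mixed with sucrose solution in wells sealed with Parafilm; aphid-infested pea seedlings placed on the Parafilm and the assembly inverted so aphids feed through the membrane. Mortality assessed 5 days after infestation.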

[3] = test system: Euschistus heros (Neotropical Brown Stink Bug); assay: Euschistus heros (Neotropical Brown Stink Bug), soybean leaves; conditions: 120 h, application rate of 200 ppm, N2 nymphs on sprayed soybean leaves, 5 days after infestation, read-out: effect in at least one of the two categories (mortality or growth inhibition)
Description: Example B4: Euschistus heros (Neotropical Brown Stink Bug)
Soybean leaves on agar in 24-well microtiter plates were sprayed with aqueous test solutions prepared from 10′000 ppm DMSO stock solutions. After drying the leaves were infested with N2 nymphs. The samples were assessed for mortality and growth inhibition in comparison to untreated samples 5 days after infestation.

[4] = test system: Chilo suppressalis (Striped Rice Stemborer); assay: Chilo suppressalis (Striped Rice Stemborer), artificial diet; conditions: 144 h, application rate of 200 ppm, L2 larvae on treated artificial diet, 6 days after infestation, read-out: control (at least one of mortality, anti-feedant effect, growth inhibition)
Description: Example B2: Chilo suppressalis (Striped Rice Stemborer)
24-well microtiter plates with artificial diet were treated with aqueous test solutions prepared from 10′000 ppm DMSO stock solutions by pipetting. After drying, the plates were infested with L2 larvae (6-8 per well). The samples were assessed for mortality, anti-feeding effect, and growth inhibition in comparison to untreated samples 6 days after infestation. Control of Chilo suppressalis by a test sample is given when at least one of the categories mortality, anti-feedant effect, and growth inhibition is higher than the untreated sample.

[5] = test system: Tetranychus urticae (Two-Spotted Spider Mite); assay: whole plant or invertebrate; conditions: foliar, 192 h, application rate of 200 ppm, mixed population (mobile stages) on sprayed bean leaf discs, 8 days after infestation, read-out: mortality
Description: Example B11: Tetranychus urticae (Two-Spotted Spider Mite): Feeding/Contact Activity
Bean leaf discs on agar in 24-well microtiter plates were sprayed with aqueous test solutions prepared from 10′000 ppm DMSO stock solutions. After drying the leaf discs were infested with a mite population of mixed ages. The samples were assessed for mortality on mixed population (mobile stages) 8 days after infestation.

[6] = test system: Bemisia tabaci (Cotton White Fly); assay: Bemisia tabaci (Cotton White Fly): feeding/contact activity, cotton leaf discs; conditions: foliar, 144 h, application rate of 200 ppm, adult white flies on sprayed cotton leaf discs, 6 days after incubation, read-out: mortality
Description: Example B1: Bemisia tabaci (Cotton White Fly): Feeding/Contact Activity
Cotton leaf discs were placed on agar in 24-well microtiter plates and sprayed with aqueous test solutions prepared from 10′000 ppm DMSO stock solutions. After drying the leaf discs were infested with adult white flies. The samples were checked for mortality 6 days after incubation.

[7] = test system: Diabrotica balteata (Corn Root Worm); assay: whole plant or invertebrate; conditions: 96 h, application rate of 200 ppm, L2 larvae on sprayed maize sprouts, 4 days after infestation, read-out: effect in at least one of the two categories (mortality or growth inhibition)
Description: Example B3: Diabrotica balteata (Corn Root Worm)
Maize sprouts placed onto an agar layer in 24-well microtiter plates were treated with aqueous test solutions prepared from 10′000 ppm DMSO stock solutions by spraying. After drying, the plates were infested with L2 larvae (6 to 10 per well). The samples were assessed for mortality and growth inhibition in comparison to untreated samples 4 days after infestation.

[8] = test system: Myzus persicae (Green Peach Aphid); assay: Myzus persicae (Green Peach Aphid): systemic activity, pea seedlings; conditions: 144 h, test rate of 24 ppm, systemic, roots of infested pea seedlings in test solution, 6 days, read-out: mortality
Description: Example B7: Myzus persicae (Green Peach Aphid). Systemic Activity
Roots of pea seedlings infested with an aphid population of mixed ages were placed directly into aqueous test solutions prepared from 10′000 DMSO stock solutions. The samples were assessed for mortality 6 days after placing seedlings into test solutions.

[9] = test system: Frankliniella occidentalis (Western Flower Thrips); assay: Frankliniella occidentalis (Western Flower Thrips): feeding/contact activity, sunflower leaf discs; conditions: foliar, 168 h, application rate of 200 ppm, mixed ages on sprayed sunflower leaf discs, 7 days after infestation
Description: Example B5: Frankliniella occidentalis (Western Flower Thrips): Feeding/Contact Activity
Sunflower leaf discs were placed on agar in 24-well microtiter plates and sprayed with aqueous test solutions prepared from […] stock solutions. After drying the leaf discs were infested with a Frankliniella population of mixed ages. The samples were assessed for mortality 7 days after infestation.

[10] = test system: Myzus persicae (Green Peach Aphid); assay: Myzus persicae (Green Peach Aphid): feeding/contact activity, sunflower leaf discs; conditions: foliar, 144 h, application rate of 200 ppm, mixed ages on sprayed sunflower leaf discs, 6 days after infestation, read-out: mortality
Description: Example B6: Myzus persicae (Green Peach Aphid): Feeding/Contact Activity
as §1, with “Sunflower” for “Example B12: Myzus persicae (Green Peach Aphid) Feeding/Contact Activity Eggplant”

Spodoptera littoralis = Spodoptera littoralis (Egyptian Cotton Leaf Worm), cotton leaf discs; conditions: foliar, 72 h, application rate of 200 ppm, L1 larvae on sprayed cotton leaf discs, 3 days after infestation, read-out: control (at least one of mortality, anti-feedant effect, growth inhibition)
Description: Example B10: Spodoptera littoralis (Eaytian Cotton Leaf Worm)
Cotton leaf discs were placed onto agar in 24-well microtiter plates and sprayed with aqueous test solutions prepared from 10′000 ppm DMSO stock solutions. After drying the leaf discs were infested with five L1 larvae. The samples were assessed for mortality, anti-feeding effect, and growth inhibition in comparison to untreated samples 3 days after infestation. Control of Spodoptera littoralis by a test sample is given when at least one of the categories mortality, anti-feedant effect, and growth inhibition is higher than the untreated sample.

C[C@@H](COc1cc(C(=O)NC2(C#N)CC2)c(Cl)nn1)NS(=O)(=O)C(F)(F)F [Compound P89, 3-chloro-N-(1-cyanocyclopropyl)-6-[(2S)-2-(trifluoromethylsulfonylamino)propoxy]pyridazine-4-carboxamide]
≥ 80%: inhibition at 200 ppm [1]

COCN([C@@H](C)COc1cnc(Cl)c(C(=O)NCC(F)(F)F)c1)S(=O)(=O)C(F)(F)F [Compound P-63, 2-chloro-5-[(2S)-2-[methoxymethyl(trifluoromethylsulfonyl)amino]propoxy]-N-(2,2,2-trifluoroethyl)pyridine-3-carboxamide]
≥ 80%: mortality at 12 ppm [2] | percent effect (mortality or growth inhibition) at 200 ppm [3] | percent control (mortality, anti-feedant effect or growth inhibition) at 200 ppm [4] | mortality at 200 ppm [5] | mortality at 200 ppm [6]

C[C@@H](COc1cnc(Cl)c(C(=O)NC2(C#N)CC2)c1)NS(=O)(=O)C(F)(F)F [Compound P-2, 2-chloro-N-(1-cyanocyclopropyl)-5-[(2S)-2-(trifluoromethylsulfonylamino)propoxy]pyridine-3-carboxamide]
≥ 80%: mortality at 12 ppm [2] | percent effect (mortality or growth inhibition) at 200 ppm [7] | percent effect (mortality or growth inhibition) at 200 ppm [3] | mortality at 24 ppm [8] | percent control (mortality, anti-feedant effect or growth inhibition) at 200 ppm [4] | mortality at 200 ppm [9] | mortality at 200 ppm [6] | mortality at 200 ppm [10] | percent control (mortality, anti-feedant effect or growth inhibition) at 200 ppm (Spodoptera littoralis)
